Experiment [1] has as its system Pseudomonas aeruginosa. In words: Antibiofilm activity against Pseudomonas aeruginosa MTCC 7814 assessed as inhibition of biofilm formation at 0.1 mM in presence of azithromycin or gentamicin incubated for 48 hrs relative to control. It counts as functional. To be noted: MTCC 7814, 48 h.
For experiment [2], the system named is Rattus norvegicus. In words: Anti-inflammatory activity against egg albumin-induced paw edema in Sprague-Dawley rat assessed as inhibition of paw edema at 0.90 mmol/Kg, po preadministered once daily via gavage for 3 days followed by egg albumin addition measured at 120 min by plethysmometric analysis relative to control. Format: functional. To be noted: 72 h, at 0.9 mmol/kg, time 3 day.

The next experiment concerns Mus musculus. In words: Anti-inflammatory activity against dimethylbenzene-induced auricular edema Kunming mouse model assessed as inhibition of ear edema at 1.35 mmol/Kg, po administered once daily via gavage for 3 days relative to control. Format: functional. To be noted: 72 h, time 3 day.
Experiment [3] in a line: Antimigratory activity against human LX2 cells assessed as inhibition rate at 5 uM relative to control. Format: functional. To be noted: LX-2.
A short description of experiment [4]: Inhibition of TGF-beta1 induced mesenchymal transformation in human A549 cells assessed as inhibition rate at 1.25 uM relative to control. It counts as functional.
Experiment [5] in a line: Antimigratory activity against Ang II-induced human Cardiac fibroblast cells assessed as inhibition rate at 0.16 uM relative to control. Format: functional.
Experiment [6] has as its system MCF7. In words: Antiproliferative activity against human MCF7 cells assessed as cell growth inhibition incubated for 72 hrs by CCK8 assay. Format: functional, cell-based. To be noted: MCF7, 72 h. Background: Tetrazolium assays rely on reduction of a dye to a coloured formazan, in cell work by metabolically active cells.
The test system of experiment [7] is HCT-116. In words: Antiproliferative activity against human HCT-116 cells assessed as cell growth inhibition incubated for 72 hrs by CCK8 assay. It counts as functional, cell-based. To be noted: HCT-116, 72 h.
The test system of experiment [8] is Human immunodeficiency virus 1. In words: Antiviral activity against HIV-1 infected in human C8166 cells. It counts as functional, organism-based. To be noted: Human immunodeficiency virus 1, C8166.
Experiment [9] relates to Rattus norvegicus. In words: Anti-inflammatory activity against egg white-induced paw edema in rat model assessed as detumescence rate measured after 6 hrs relative to control. Format: functional.
For experiment [10], the system named is Pseudomonas aeruginosa. In words: Antibacterial activity against Pseudomonas aeruginosa assessed as bacterial growth inhibition by agar dilution method. Format: functional. In general terms: In agar dilution the substance is mixed into plates at graded concentrations.
For the next experiment, the system named is Klebsiella aerogenes. In words: Antibacterial activity against Klebsiella aerogenes assessed as bacterial growth inhibition by agar dilution method. It counts as functional.
The subject of a further experiment is DU-145. In words: Cytotoxicity against human DU-145 cells assessed as cell growth inhibition after 48 hrs by SRB assay. Format: functional, cell-based. To be noted: DU-145, 48 h. In general terms: Sulforhodamine B stains cellular protein and so reports cell mass.
In the next experiment the test system is NCI/ADR-RES. In words: Cytotoxicity against human MCF7/ADR cells assessed as cell growth inhibition after 48 hrs by SRB assay. Format: functional, cell-based.
The next experiment relates to PC-3. In words: Cytotoxicity against human PC-3 cells assessed as cell growth inhibition after 48 hrs by SRB assay. It counts as functional, cell-based. To be noted: PC-3, 48 h.
A further experiment relates to NCI-H522. In words: Cytotoxicity against human NCI-H522 cells assessed as cell growth inhibition after 48 hrs by SRB assay. To be noted: NCI-H522, 48 h. Format: functional, cell-based.
In experiment [11] the test system is MCF7. In words: Cytotoxicity against human MCF7 cells assessed as cell growth inhibition after 48 hrs by SRB assay. It counts as functional, cell-based. To be noted: MCF7, 48 h.
The test system of the next experiment is OVCAR-8. In words: Cytotoxicity against human OVCAR-8 cells assessed as cell growth inhibition after 48 hrs by SRB assay. To be noted: OVCAR-8, 48 h. Format: functional, cell-based.
The test system of another experiment is SW-620. In words: Cytotoxicity against human SW620 cells assessed as cell growth inhibition after 48 hrs by SRB assay. Format: functional, cell-based. To be noted: SW-620, 48 h.
The subject of another experiment is UACC-62. In words: Cytotoxicity against human UACC-62 cells assessed as cell growth inhibition after 48 hrs by SRB assay. Format: functional, cell-based. To be noted: UACC-62, 48 h.
The subject of the next experiment is HT-29. In words: Cytotoxicity against human HT-29 cells assessed as cell growth inhibition after 48 hrs by SRB assay. To be noted: HT-29, 48 h. Format: functional, cell-based.
In experiment [12] the test system is HCT-116. In words: Antiproliferative activity against human HCT-116 cells assessed as cell growth inhibition measured after 48 hrs by MTT assay. To be noted: HCT-116, 48 h. Format: functional, cell-based.
The species entered for experiment [13] is Rattus norvegicus. In words: Antiplatelet activity against collagen-induced Sprague-Dawley rat platelet aggregation assessed as inhibition of platelet aggregation preincubated for 2 mins followed by collagen addition by turbidimetric method. To be noted: Arterial blood. It counts as functional.
The species named for experiment [14] is Rattus norvegicus. In words: Antiplatelet activity against thrombin-induced Sprague-Dawley rat platelet aggregation assessed as inhibition of platelet aggregation preincubated for 2 mins followed by thrombin addition by turbidimetric method. Format: functional. To be noted: Arterial blood.
The species entered for experiment [15] is Rattus norvegicus. In words: Antiplatelet activity against arachidonic acid-induced Sprague-Dawley rat platelet aggregation assessed as inhibition of platelet aggregation preincubated for 2 mins followed by arachidonic acid addition by turbidimetric method. It counts as functional. To be noted: Arterial blood.

In brackets after ≈: the same amount, converted by molar mass.

A word on the inhibition: it is the percentage by which the read-out fell short of the control. As usually defined, the inhibition in vivo is the percentage by which the read-out fell short of the control. What is called IC50 is the concentration that gives 50% inhibition. For orientation: MIC means the smallest concentration in the dilution series that meets the test's criterion for growth inhibition.

In the case of `C=C1CCC2[C@](C)(CO)[C@H](O)CC[C@@]2(C)[C@@H]1/C=C/C1=CCOC1=O` (stereo partly drawn), the inhibition at 100 µM with Pseudomonas aeruginosa [1] was determined as 92%.
As for `C=C1CC[C@@H]2[C@](C)(COC(=O)c3cccnc3)[C@H](OC(=O)c3cccnc3)CC[C@@]2(C)[C@@H]1/C=C/C1=CC(=C/c2ccc(Cl)cc2)/OC1=O`, the inhibition in vivo at 900 µmol/kg in the experiment on Rattus norvegicus [2] turned out to be 50.4%. In the experiment with Mus musculus, the inhibition in vivo at 1350 µmol/kg stood at 79.4%.
`C=C1CCC2[C@](C)(C=O)c3nc(N)sc3C[C@@]2(C)[C@@H]1/C=C/C1=CCOC1=O` (stereo partly drawn): the inhibition at 5 µM in experiment [3] was more than 20%. Moreover, the inhibition at 1.25 µM in [4] is more than 65%.
Turning to `C=C1CCC2[C@](C)(CO)NC(=O)CC[C@@]2(C)[C@@H]1/C=C/C1=CCOC1=O` (stereo partly drawn), the inhibition at 5 µM in experiment [3] is more than 40%. Besides, the inhibition at 0.16 µM in [5] was more than 95%. Besides, in experiment [4], the inhibition at 1.25 µM was more than 60%.
Take `C=C1CC[C@H]2[C@@](C)(C=CC(=O)[C@@]2(C)COC(=O)c2ccccc2)[C@@H]1C/C=C1/C(=O)OC[C@H]1O`: the values for the 50% inhibitory concentration (IC50) with MCF7 [6] and with HCT-116 [7] were 7.8 µM and 2.49 µM, respectively.
Compound `C=C1CCC2[C@](C)(CO)[C@H](O)CC[C@@]2(C)[C@@H]1CCC1C(=O)N(C)C[C@H]1O` (stereo partly drawn) returned a concentration for half-maximal inhibition (IC50) in experiment [8] of 4.1 µM.
In the case of `C[C@@]12CCC3[C@](C)(COC(=O)CCC(=O)O)[C@H](OC(=O)CCC(=O)O)CC[C@@]3(C)[C@@H]1CC(C1=CCOC1=O)O2` (stereo partly drawn), the “inhibition (INH)” value in the experiment on Rattus norvegicus [9] amounted to 93.18%.
Turning to `C=C1CCC2[C@](C)(CO)[C@H](O)CC[C@@]2(C)[C@@H]1C/C=C(/C(=O)OCC)[C@H](O)CO` (stereo partly drawn), the MIC in the experiment on Pseudomonas aeruginosa [10] and in the experiment on Klebsiella aerogenes was 18.9 µg/mL (≈ 47.7 µM) each time.
As for `C=C1CCC2[C@](C)(CO)[C@H](O)CC[C@@]2(C)[C@@H]1C/C=C/c1ccc(F)cc1` (stereo partly drawn), the half-maximal inhibitory concentration (IC50) turned out to be 7 µM in the experiment with DU-145; 4 µM in the experiment with NCI/ADR-RES; 14 µM with PC-3; 3 µM in the experiment on NCI-H522; 14 µM with MCF7 [11]; 2 µM in the experiment on OVCAR-8. For the same compound, the figures for the IC50 in the experiment with SW-620, in the experiment with UACC-62 and in the experiment with HT-29 were 20 µM, 17 µM and 16 µM, respectively.
For `C=C1CC[C@@H]2[C@](C)(COC(C)=O)[C@H](OC(C)=O)CC[C@@]2(C)[C@@H]1CC(Nc1ccccc1SC)C1=CCOC1=O` (stereo partly drawn), in the experiment on HCT-116 [12], the IC50 came to 5.8 µM.
With `C=C1CCC2[C@](C)(COC(=O)CCC(=O)O)[C@H](OC(=O)CCC(=O)O)CC[C@@]2(C)[C@@H]1/C=C/c1cc(=O)oc2cc(OC(C)=O)ccc12` (stereo partly drawn), the IC50 in the experiment filed under Rattus norvegicus [13] is 0.5 µM; in the experiment listed under Rattus norvegicus [14], 0.36 µM; in the experiment listed under Rattus norvegicus [15], 0.48 µM.
`C=C1CCC2[C@](C)(COC(=O)Cc3cccc4ccccc34)[C@H](OC(=O)c3cccnc3)CC[C@@]2(C)[C@@H]1/C=C/C1=CCOC1=O` (stereo partly drawn): in experiment [8], the concentration for half-maximal inhibition (IC50) was 9.69 µM.
